This passage reports Dmax and DC50 results from patent publication US20260265271A1, “Cereblon Ligands and Uses Thereof” (REGENTS OF THE UNIVERSITY OF MICHIGAN, priority 2022, published 2026).

For assay [1], the target named is T1, ER (Homo sapiens, UniProt P03372). In words: ER degradation by in-cell western (ICW), MCF7 cells. It counts as cell-based. Also on record: endogenous in cells; host or cells: MCF-7. As to conditions: for Dmax: MCF7, read-out: MCF7 Dmax (%); for DC50: MCF7 cells, ER in-cell western, 16 hours. The protocol:
(§1) ERa degradative activity of compounds can be assessed in MCF-7 and T47D Cells. MCF-7 and T47D cell are seeded and are subsequently treated with the compounds at certain concentrations (e.g., 0.02 to 300 nM). DMSO can be used as vehicle control. Cells are fixed and are blocked with Intercept (PBS) Blocking Buffer (e.g., Li—COR, Odyssey Blocking Buffer), and are stained with ER (e.g., 1:500, Cell signaling) primary antibody for overnight at cold room. Secondary Antibody (e.g., IRDye 800CW Goat anti-Rabbit IgG) and CellTag 700 Stain are added in Intercept (PBS) Blocking Buffer. Finally, cell plate is placed in incubator to dry. Image and signal were captured on Odyssey@DLx Imaging System.
(§2) In-cell western blot analysis. Cells are seeded in multi-well plates (e.g., at 40,000 or 10,000 cells/well). Diluted compounds at certain concentration are added (final 0.5% DMSO) and cells are incubated for certain period of time (e.g., 16 hours). Formaldehyde (e.g., PBS:FA=9:1) is added and followed by washing with PBS. The cells are blocked with Licor blocking buffer (Li-Cor). The relative ER percentage in treated cells were obtained by comparing the values of treated wells to those in untreated and DMSO-treated wells as 100%.
(§3) In-cell western blot analysis. a. seed cells in black-sided/clear bottom 96- or 384-well plates at 40,000 or 10,000 cells/well, overnight; b. add diluted compounds (final 0.5% DMSO), 16 hours. […] RT 2 h, gentle shaking. Negative control: cells plus secondary antibodies (no primary antibodies); e. wash×4 with PBS +0.05-0.1% Tween 20, gentel shaking; f. anti-rabbit-680 and anti-mouse-800 (both 1:1000 in LiCor block +0.05% Tween20, RT 1 h, gentle shaking, no light. LI-COR: 0.2% to reduce background; g. wash×4 with PBS+0.05% Tween 20, gental shaking; h. add 100 μL or 25 μL of PBS to each well and read on CLX plate reader. The relative ER percentage in treated cells were obtained by comparing the values of treated wells to those in untreated and DMSO-treated wells as 100%.

Assay [2] has as its target T1, ER. Description: ER degradation by in-cell western (ICW), T47D cells. It counts as cell-based. The following applies: for DC50: T47D cells, ER in-cell western, 16 hours; for Dmax: T47D, read-out: T47D Dmax (%). On the set-up: endogenous in cells; host or cells: T47D. The protocol: as §1, §2, §3

T1 sequence (P03372 whole entry): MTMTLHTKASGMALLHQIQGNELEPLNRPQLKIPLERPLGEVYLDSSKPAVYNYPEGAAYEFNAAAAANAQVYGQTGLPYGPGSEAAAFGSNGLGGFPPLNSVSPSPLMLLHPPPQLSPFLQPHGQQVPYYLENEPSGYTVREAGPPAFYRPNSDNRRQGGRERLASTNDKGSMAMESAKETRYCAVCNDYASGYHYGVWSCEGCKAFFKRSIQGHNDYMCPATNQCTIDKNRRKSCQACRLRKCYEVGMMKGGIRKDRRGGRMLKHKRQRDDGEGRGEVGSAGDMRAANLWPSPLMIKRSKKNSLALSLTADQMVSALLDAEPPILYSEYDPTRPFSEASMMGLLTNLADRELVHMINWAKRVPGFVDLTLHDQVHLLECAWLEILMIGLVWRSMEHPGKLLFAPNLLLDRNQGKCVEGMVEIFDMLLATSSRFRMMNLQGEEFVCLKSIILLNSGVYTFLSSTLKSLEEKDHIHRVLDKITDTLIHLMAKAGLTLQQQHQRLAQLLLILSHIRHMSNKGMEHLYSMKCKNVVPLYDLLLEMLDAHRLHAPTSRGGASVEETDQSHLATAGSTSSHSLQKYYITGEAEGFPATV

Take `C[C@@H]1Cc2c(ccc3[nH]ncc23)[C@@H](c2ccc(N3CCC4(CC3)CC(CN3CCN5c6cc7c(cc6OC[C@@H]5C3)C(=O)N([C@@H]3CCC(=O)NC3=O)C7)C4)cn2)N1CC1(F)CC1` [IDZ-A12, (R)-3-((S)-3-((7-(6-((6S,8R)-7-((1-fluorocyclopropyl)methyl)-8-methyl-6,7,8,9-tetrahydro-3H-pyrazolo[4,3-f]isoquinolin-6-yl)pyridin-3-yl)-7-azaspiro[3.5]nonan-2-yl)methyl)-8-oxo-1,2,3,4,4a,5,8,10-octahydro-9H-pyrazino[1′,2′:4,5][1,4]oxazino[2,3-f]isoindol-9-yl)piperidine-2,6-dione]: in assay [1], the Dmax is above 75% and the DC50 is below 1 nM. In assay [2], the DC50 was below 1 nM and the Dmax was above 75%.

For the molecule `C[C@@H]1Cc2c([nH]c3ccccc23)[C@@H](c2cnc(N3CCC4(CC3)CC(CN3CCN5c6ccc(C(=O)N[C@H]7CCC(=O)NC7=O)nc6OC[C@H]5C3)CO4)nc2)N1CC(F)F` (stereo partly drawn) [IND-A63, (4aR)-3-((8-(5-((1R,3R)-2-(2,2-difluoroethyl)-3-methyl-2,3,4,9-tetrahydro-1H-pyrido[3,4-b]indol-1-yl)pyrimidin-2-yl)-1-oxa-8-azaspiro[4.5]decan-3-yl)methyl)-N—((S)-2,6-dioxopiperidin-3-yl)-1,2,3,4,4a,5-hexahydropyrazino[1,2-d]pyrido[2,3-b][1,4]oxazine-8-carboxamide], in assay [1], the Dmax lay in the range of 50 to 75% and the DC50 lay within 1 to 10 nM. In addition, in assay [2], the DC50 was in the range of 1 to 10 nM and the Dmax lay within 50 to 75%.

A word on the Dmax: it is the greatest extent of degradation seen. As a reminder, the DC50 is the midpoint of the concentration-degradation curve.
